The text below walks through data of patent publication EP0942911B1, “BENZOPYRANOPYRROLE AND BENZOPYRANOPYRIDINE ALPHA-1 ADRENERGIC COMPOUNDS” (Abbott Laboratories, priority 1996, dated 1998).

Structures can show the parent of a compound that is named as a salt.

The subject of assay [1] is α-1A adrenoreceptor. The experiment in a line: Functional antagonism: inhibition of PE-induced contraction of canine prostate strips (Schild plot). The assay is classed as cell-based. To be noted: phenylephrine-induced contraction. The text has this: Canine prostate strips were used in vitro as previously described (Hieble, J.P., Boyce, A.J. and Caine, M., Fed. Proc., 45: 2609-2614 (1986)), to determine antagonist potencies against phenylephrine-induced contractions.
(§1) Functional assays indicative of pharmacologically defined α-1 adrenoreceptors were used to further characterize compounds. Inhibition of phenylephrine (PE)-induced contraction of canine prostate smooth muscle can be correlated with α-1A adrenoreceptor activation. […] For each of these models, agonist dose response curves were repeated against increasing concentrations of test agent to derive a Schild plot [log ([…]) against log (molarity of test agent)] to determine the pA2.

Assay [2] concerns α-1 Adrenoceptors. Kind of assay: Functional antagonism in rat aorta (method not described). It is filed as cell-based.
For assay [3], the target named is T1, α-1d adrenoreceptor (Rattus norvegicus, UniProt P23944).
T1 sequence (P23944 1-561): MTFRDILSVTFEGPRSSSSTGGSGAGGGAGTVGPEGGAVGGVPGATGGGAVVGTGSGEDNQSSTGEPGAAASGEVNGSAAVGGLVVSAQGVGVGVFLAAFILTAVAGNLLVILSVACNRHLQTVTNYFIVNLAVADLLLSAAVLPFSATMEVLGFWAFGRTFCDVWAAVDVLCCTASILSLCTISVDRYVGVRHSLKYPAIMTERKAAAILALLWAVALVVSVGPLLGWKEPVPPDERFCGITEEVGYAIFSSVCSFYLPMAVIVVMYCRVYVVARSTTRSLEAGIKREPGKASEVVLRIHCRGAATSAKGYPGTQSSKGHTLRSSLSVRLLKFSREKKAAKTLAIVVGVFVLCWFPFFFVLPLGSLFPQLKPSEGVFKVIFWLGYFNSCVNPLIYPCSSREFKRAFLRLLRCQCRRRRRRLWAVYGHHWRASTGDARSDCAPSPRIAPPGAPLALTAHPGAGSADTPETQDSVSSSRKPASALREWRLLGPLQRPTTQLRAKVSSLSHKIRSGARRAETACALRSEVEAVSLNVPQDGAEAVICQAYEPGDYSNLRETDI
Kind of assay: biochemical. It is filed as binding. To be noted: [3H]-prazosin radioligand; cloned receptor in LTK cell membranes; read-out: Radioligand Binding (Ki, nM) 1d (Rat). The method in brief:
(§2)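 LTK mouse fibroblasts stably transfected with α-1a, α-1b or α-1d cDNA → roller-bottle culture 5 days at 37 °C → membranes in 50 mM Tris-HCl, stored at -70 °C → radioligand binding → scintillation counting.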

For assay [4], the target named is T2, α-1a adrenoreceptor (Bos taurus, UniProt P18130).
T2 sequence (P18130 1-466): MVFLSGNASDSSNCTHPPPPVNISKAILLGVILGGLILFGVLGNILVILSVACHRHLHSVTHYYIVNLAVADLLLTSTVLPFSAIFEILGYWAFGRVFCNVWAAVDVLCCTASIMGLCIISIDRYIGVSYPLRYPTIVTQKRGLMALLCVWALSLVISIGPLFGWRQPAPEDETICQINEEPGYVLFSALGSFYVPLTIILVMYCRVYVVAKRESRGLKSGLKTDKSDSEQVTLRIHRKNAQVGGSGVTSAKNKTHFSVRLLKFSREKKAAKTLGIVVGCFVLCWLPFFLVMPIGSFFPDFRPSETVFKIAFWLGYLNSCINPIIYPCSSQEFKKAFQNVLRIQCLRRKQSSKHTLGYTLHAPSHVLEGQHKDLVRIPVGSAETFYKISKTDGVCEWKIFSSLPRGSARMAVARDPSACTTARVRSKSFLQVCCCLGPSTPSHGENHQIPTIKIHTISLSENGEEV
Kind of assay: biochemical. It is filed as binding, bovine. To be noted: [3H]-prazosin radioligand; cloned receptor in LTK cell membranes; read-out: Radioligand Binding (Ki, nM) 1a (Bovine). The method in brief:
as §2

The target in assay [5] is T3, α-1b adrenoreceptor (Mesocricetus auratus, UniProt P18841).
T3 sequence (P18841 1-515): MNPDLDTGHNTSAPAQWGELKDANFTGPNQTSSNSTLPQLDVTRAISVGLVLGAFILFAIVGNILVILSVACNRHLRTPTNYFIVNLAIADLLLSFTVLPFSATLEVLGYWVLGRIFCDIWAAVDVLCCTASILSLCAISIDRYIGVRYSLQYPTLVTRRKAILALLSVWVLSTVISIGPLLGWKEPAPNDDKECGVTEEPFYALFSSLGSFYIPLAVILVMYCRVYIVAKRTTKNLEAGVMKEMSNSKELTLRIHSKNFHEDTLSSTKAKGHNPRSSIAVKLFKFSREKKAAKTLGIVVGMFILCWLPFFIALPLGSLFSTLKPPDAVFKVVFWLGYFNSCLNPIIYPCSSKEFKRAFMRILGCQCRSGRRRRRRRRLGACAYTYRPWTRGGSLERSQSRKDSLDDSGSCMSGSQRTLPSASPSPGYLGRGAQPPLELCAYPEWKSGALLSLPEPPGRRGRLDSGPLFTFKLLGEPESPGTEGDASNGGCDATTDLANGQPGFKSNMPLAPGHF
Kind of assay: biochemical. It is filed as binding, hamster. To be noted: [3H]-prazosin radioligand; cloned receptor in LTK cell membranes; read-out: Radioligand Binding (Ki, nM) 1b (Hamster). The method in brief:
as §2

Assay [6] addresses T4, α-1A adrenoreceptor (rat submaxillary gland) (Rattus norvegicus, UniProt P43140).
T4 sequence (P43140 1-466): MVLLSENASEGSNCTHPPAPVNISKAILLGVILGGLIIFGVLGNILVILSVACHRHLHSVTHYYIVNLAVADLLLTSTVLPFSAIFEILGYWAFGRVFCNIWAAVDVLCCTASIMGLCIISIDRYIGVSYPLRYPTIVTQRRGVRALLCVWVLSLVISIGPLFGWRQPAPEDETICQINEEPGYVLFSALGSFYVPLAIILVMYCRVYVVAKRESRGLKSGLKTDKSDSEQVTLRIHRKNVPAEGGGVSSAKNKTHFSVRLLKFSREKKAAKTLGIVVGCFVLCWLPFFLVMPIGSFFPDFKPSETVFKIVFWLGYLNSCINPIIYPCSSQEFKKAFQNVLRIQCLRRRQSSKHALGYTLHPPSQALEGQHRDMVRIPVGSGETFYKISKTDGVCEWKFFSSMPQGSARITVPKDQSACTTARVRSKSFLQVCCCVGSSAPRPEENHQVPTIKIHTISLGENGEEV
Kind of assay: biochemical. The assay is classed as binding. The settings on record: [3H]-prazosin radioligand; rat submaxillary gland membranes; read-out: Radioligand Binding (Ki, nM) 1A (Rat). The method in brief:
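Radioligand binding to α-1A sites in membrane homogenates of rat submaxillary gland, run after Greengrass and Bremner. Bound radioactivity counted by liquid scintillation.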

The target in assay [7] is T5, α-1B adrenoreceptor (Rattus norvegicus, UniProt P15823).
T5 construct: from tissue; host or cells: rat spleen
T5 sequence (P15823 1-515): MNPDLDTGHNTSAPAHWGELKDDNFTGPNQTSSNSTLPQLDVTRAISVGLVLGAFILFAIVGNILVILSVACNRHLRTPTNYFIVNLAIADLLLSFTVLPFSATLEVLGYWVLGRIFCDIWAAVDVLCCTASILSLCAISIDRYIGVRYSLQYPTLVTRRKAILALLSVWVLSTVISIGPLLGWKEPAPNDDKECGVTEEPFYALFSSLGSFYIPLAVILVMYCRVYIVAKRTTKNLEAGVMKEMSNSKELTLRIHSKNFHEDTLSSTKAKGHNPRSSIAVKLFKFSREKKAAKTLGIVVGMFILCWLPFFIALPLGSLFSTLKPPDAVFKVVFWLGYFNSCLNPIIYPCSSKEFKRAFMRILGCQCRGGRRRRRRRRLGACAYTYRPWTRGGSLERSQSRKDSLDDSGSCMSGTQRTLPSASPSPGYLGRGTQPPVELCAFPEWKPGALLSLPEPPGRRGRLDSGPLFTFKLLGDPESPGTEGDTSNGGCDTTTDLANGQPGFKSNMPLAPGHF
The experiment in a line: cell-based. The settings on record: phenylephrine-induced contraction; Schild plot.
Text: as §1

As for `COc1cccc2c1[C@@H]1CCN(CCCCn3c(=O)[nH]c4c(sc5cccnc54)c3=O)C[C@H]1CO2` (racemic) [Example 88, 3-[4-((±)-trans-10-Methoxy-1,3,4,4a,5,10b-hexahydro-2H-[1]-benzopyrano[3,4-c]pyrido-3-yl)butyl]-pyrido[2',3':4,5]thieno[3,2-d]pyrimidine-2,4(1H,3H)-dione hydrochloride], in assay [1], the “In Vitro Characterization (pA2) Dog Prostate” value was 8.09.

Consider `COc1cccc2c1[C@@H]1CN(CCCCn3c(=O)[nH]c4c(sc5nc(Cl)ccc54)c3=O)C[C@@H]1CO2` [Example 32, 3-[4-((3aR,9bR)-cis-9-Methoxy-1,2,3,3a,4,9b-hexahydro-[1]-benzopyrano[3,4-c]pyrrol-2-yl)butyl]-7-chloro-pyrido[3',2':4,5]thieno[3,2-d]pyrimidine-2,4(1H,3H)-dione hydrochloride], for which the “In Vitro Characterization (pA2) Rat Aorta” value in assay [2] is on record as 9.31. Further, the Ki in assay [3] turned out to be 0.86 nM.

In the case of `COc1cnc2sc3c(=O)n(CCCCN4CC[C@H]5c6c(OC)cccc6OC[C@@H]5C4)c(=O)[nH]c3c2n1` [Example 99, 3-[4-((4aS,10bR)-trans-10-Methoxy-1,3,4,4a,5,10b-hexahydro-2H-[1]-benzopyrano[3,4-c]pyrido-3-yl)butyl]-8-methoxy-pyrazino[2',3':4,5]thieno[3,2-d]pyrimidine-2,4(1H,3H)-dione hydrochloride], the Ki was 1.73 nM in assay [4], 5.81 nM in assay [3], 57.1 nM in assay [5] and 14.9 nM in assay [6].

For the compound `COc1cccc2c1[C@@H]1CCN(CCCCn3c(=O)[nH]c4c(sc5ncc(-c6ccccc6)nc54)c3=O)C[C@H]1CO2` [Example 100, 3-[4-((4aS,10bR)-trans-10-Methoxy-1,3,4,4a,5,10b-hexahydro-2H-[1]-benzopyrano[3,4-c]pyrido-3-yl)butyl]-8-phenyl-pyrazino[2',3':4,5]thieno[3,2-d]pyrimidine-2,4(1H,3H)-dione hydrochloride], the Ki in assay [4] amounted to 5.83 nM; in assay [3], 7.59 nM; in assay [5] it was 27 nM; in assay [6], 30.5 nM.

Turning to `COc1cccc2c1[C@@H]1CCN(CCCCn3c(=O)[nH]c4c(sc5ccc(-c6ccccc6)nc54)c3=O)C[C@H]1CO2` [Example 101, 3-[4-((4aS,10bR)-trans-10-Methoxy-1,3,4,4a,5,10b-hexahydro-2H-[1]-benzopyrano[3,4-c]pyrido-3-yl)butyl]-8-phenyl-pyrido[2',3':4,5]thieno[3,2-d]pyrimidine-2,4(1H,3H)-dione dihydrochloride], the inhibition constant (Ki) came out at 0.063 nM in assay [4], 0.597 nM in assay [3], 8.41 nM in assay [5] and 1.27 nM in assay [6].

Turning to `COc1cccc2c1[C@@H]1CCN(CCCCn3c(=O)[nH]c4c(sc5nc(Cl)ccc54)c3=O)C[C@H]1CO2` [Example 102, 3-[4-((4aS,10bR)-trans-10-Methoxy-1,3,4,4a,5,10b-hexahydro-2H-[1]-benzopyrano[3,4-c]pyrido-3-yl)butyl]-7-chloro-pyrido[3',2':4,5]thieno[3,2-d]pyrimidine-2,4(1H,3H)-dione hydrochloride], the Ki in assay [4] amounted to 0.113 nM; in assay [3], 0.651 nM; in assay [5], 6.26 nM; in assay [6] it was 1.89 nM.

On to `COc1ccc2c(n1)sc1c(=O)n(CCCCN3CC[C@H]4c5c(OC)cccc5OC[C@@H]4C3)c(=O)[nH]c12` [Example 103, 3-[4-((4aS,10bR)-trans-10-Methoxy-1,3,4,4a,5,10b-hexahydro-2H-[1]-benzopyrano[3,4-c]pyrido-3-yl)butyl]-7-methoxy-pyrido[3',2':4,5]thieno[3,2-d]pyrimidine-2,4(1H,3H)-dione hydrochloride], for which the Ki in assay [4] came out at 0.115 nM; in assay [3] it was 0.243 nM; in assay [5], 3.33 nM; in assay [6], 0.909 nM.

`COc1ccc(O)c2c1[C@@H]1CN(CCCCn3c(=O)[nH]c4c(sc5ncc(-c6ccccc6)nc54)c3=O)C[C@@H]1CO2` [Example 105, 3-[4-((3aR,9bR)-cis-6-Hydroxy-9-methoxy-1,2,3,3a,4,9b-hexahydro-[1]-benzopyrano[3,4-c]pyrrol-2-yl)butyl]-8-phenyl-pyrazino[2',3':4,5]thieno[3,2-d]pyrimidine-2,4(1H,3H)-dione]: the Ki in assay [4] came to 6.42 nM; in assay [3], 55.9 nM; in assay [5] it was 1620 nM; in assay [6], 26.3 nM.

Take `COc1cc2nc(N3CCN(C(=O)C4CCCO4)CC3)nc(N)c2cc1OC` (stereo not shown) [Terazosin, terazosin, reference compound]: the “In Vitro Characterization (pA2) Rat Spleen” value in assay [7] is 8.60. Moreover, the “In Vitro Characterization (pA2) Rat Aorta” value in assay [2] is given as 8.65. Moreover, the Ki in assay [4] turned out to be 3.31 nM; in assay [3] it was 0.689 nM.
